This is an account of results in BindingDB's records for doi:10.1021/jm201702g (Ambit Biosciences, 2012).

This assay can be described thus: Inhibition of Aurora kinase B in human HCT116 cells assessed as induction of 8N polyploidy.

What is called EC50 is the midpoint of the concentration-response curve.

For the compound `Cc1cc(Nc2nc(Sc3ccc(NC(=O)CN4CC[C@@H](C(=O)NC5CCCC5)C4)cc3)nn3cccc23)n[nH]1`, the EC50 is 3 nM.

For `Cc1cc(Nc2nc(Sc3ccc(NC(=O)CN4CC[C@@H](C(=O)N5CCC(F)(F)C5)C4)cc3)nn3cccc23)n[nH]1`, the EC50 stood at 3 nM.
